Measured values as given in patent US11912693B2, “Compounds for modulating S1P1 activity and methods of using the same” (TREVENA, INC., priority 2017, dated 2024).

Assays:
[1] = tested on: Freund's Complete Adjuvant induced inflammation / mechanical allodynia; test: Tactile allodynia produced by intraplantar Freund's Complete Adjuvant in rats (Randall-Selitto); format: in vivo, rat; details: CFA model, 24 hours after CFA
Experimental: Animals were acclimated to the vivarium for at least 48 hr prior to behavioral testing. Inflammation was induced with the administration of an intraplantar (subcutaneous injection into the plantar surface of the hind paw, i.pl.) injection of 0.10 ml Freund's Complete Adjuvant (FCA). The experiments were conducted 24 hours after CFA administration. Rats are tested for mechanical allodynia in a Randall-Selitto apparatus. The inflamed paw is put on a pedestal and a pointed force of increasing intensity (0 to 250 grams) is applied to the paw. When the animal struggles to withdraw from the force the test is stopped and the force to induce that struggle is recorded. Data is presented as mean grams of force to withdrawal or a percentage of the maximum possible effect.

hERG channel = hERG channel (Homo sapiens (Human), UniProt Q12809); test: Automated Qpatch patch-clamp hERG assay
[2] = tested on: spinal nerve ligation peripheral neuropathy; test: Tactile allodynia and thermal hyperalgesia in spinal nerve ligation (SNL) peripheral neuropathy model; format: in vivo, Sprague Dawley rats
Experimental: A cohort of 48 male Sprague Dawley rats, weighing 225-250 g at arrival, was group housed under constant temperature, humidity and a 12-hour light-dark cycle. Following acclimation to the animal colony, the animals were tested for baseline withdrawal responses to mechanical allodynia and thermal hyperalgesia using the methods described in. Chaplan, S. R., Bach, […]., Chung, J. M. and Yaksh, T. L. Quantitative assessment of tactile allodynia in the rat paw. J. Neurosci. Methods 53: 55-63, 1994; Joris, J. L., Dubner, R. and Hargreaves, K. M. Opioid analgesia at Peripheral Sites: a Target for Opioids Released during Stress and Inflammation? Anesthesia and Analgesia 66(12), 1277-81, 1987; and Kim, S. H. and Chung, J. M. An experimental model of peripheral neuropathy produced by segmental spinal nerve ligation in the rat. Pain 50: 335-63, 1992. […] Thermal hyperalgesia was measured at 1 or 1.5 hr after dosing of test articles, vehicle, and reference compound via the specified route(s) on Day 21. […] The time was measured automatically when the paw was withdrawn away from the thermal stimulus. […] Mean thresholds and withdrawal latencies were analyzed via Two Way ANOVA followed by Dunnett's Multiple Comparison tests to SNL+VEH group with differences considered significant at p<0.05.

[3] = tested on: STZ-induced diabetic neuropathy; test: Tactile allodynia and thermal hyperalgesia in streptozotocin-induced (STZ) diabetic neuropathy model; format: in vivo, Sprague Dawley rats; details: for Active Doses in STZ Diabetic Neuropathy Model (mg/kg, po) (p < 0.05 compared to STZ + VEH treated mice) MECHANICAL: mechanical allodynia, manual von Frey; for Active Doses in STZ Diabetic Neuropathy Model (mg/kg, po) (p < 0.05 compared to STZ + VEH treated mice) THERMAL: thermal hyperalgesia, paw withdrawal latency
Experimental: A cohort of 48 male Sprague Dawley rats, weighing 225-250 g at arrival, was group housed under constant temperature, humidity and a 12-hour light-dark cycle. Following acclimation to the animal colony, the animals were tested for baseline withdrawal responses to mechanical allodynia and thermal hyperalgesia using the methods described below in Chaplan, S. R., Bach, […]., Chung, J. M. and Yaksh, T. L. Quantitative assessment of tactile allodynia in the rat paw. J. Neurosci. Methods 53: 55-63, 1994; Joris, J. L., Dubner, R. and Hargreaves, K. M. Opioid analgesia at Peripheral Sites: a Target for Opioids Released during Stress and Inflammation? Anesthesia and Analgesia 66(12), 1277-81, 1987; and Morrow, T. J. Animal Models of Painful Diabetic Neuropathy: The STZ rat model. Current Protocols in Neuroscience, November; Chapter 9, Unit 9.18, 2004.. […] Two days later (on Day 3), hyperglycermia was confirmed by existence of blood glucose >350 mg/dL as measured by glucometer, and the animal health was monitored biweekly for 12 days. For measures of mechanical allodynia, rats were preselected for experimentation only if the pain threshold 7-14 days after STZ injection (pre-treatment) was reduced by 10 grams of force relative to the response of the individual paw before STZ challenge (pre-induction), namely, with clear presence of allodynia. The rats were randomized based on pre-dose mechanical allodynia scores to balanced treatment groups. The animals were tested prior to study inclusion for mechanical allodynia by the manual von Frey test on Day 20 (Chaplan up/down method using von Frey filaments on the plantar surface of the paw). The manual von Frey test was repeated at 0.5 or 1 hr following administrations of test articles, vehicle, and reference compound via the specified route(s) and on Day 21 post-surgery. […] The rats were randomized based on pre-dose thermal hyperalgesia scores to balanced treatment groups. Rats were preselected (with clear presence of thermal hyperalgesia) on Day 20. Thermal hyperalgesia was measured at 1 or 1.5 hr after dosing of test articles, vehicle, and reference compound via the specified route(s) on Day 21. Each rat was placed within a plastic box atop a glass floor for 20 to 30 minutes. A light beam under the floor was aimed at the plantar surface of the left hind paw. The time was measured automatically when the paw was withdrawn away from the thermal stimulus. A cut-off latency of 23 sec was imposed. The latency to withdrawal was obtained for each rat and defined as the heat pain threshold. Mean thresholds and withdrawal latencies were analyzed via Two Way ANOVA followed by Dunnett's Multiple Comparison tests to STZ+VEH group with differences considered significant at p<0.05.

[4] = tested on: A2780 human ovarian carcinoma; test: A2780 human ovarian carcinoma xenograft tumor growth delay in athymic nude mice; details: 60-day study
Experimental: Female athymic nude mice (Crl:NU(NCr)-Foxnlnu, Charles River Laboratories) were implanted with A2780 human ovarian carcinoma cells to initiate tumor growth.
Each mouse received 1×10^7 cells (0.1 mL cell suspension) subcutaneously in the right flank, and tumors were monitored as their volumes approached the target range of 100 to 150 mm3. Fourteen days later, designated as Day 1 of the study, mice were sorted into six groups of ten each. […] Tumors were measured twice weekly for the study duration.
Starting on Day 1 of the study, six groups (n=10) of female athymic nude mice with established A2780 tumors were treated according to the following plan. Treatments were administered either by intravenous injection (i.v.) or oral gavage (p.o.) and were adjusted to the body weight of the individual animal. Group 1 received Vehicle 1, i.v., once every other day for five doses (qod×5) and Vehicle 2, p.o., once daily to the end of the study (qd to end), and served as the control group for efficacy analysis. Group 2, the paclitaxel monotherapy group, received paclitaxel i.v., qod×5 plus Vehicle 2, p.o., qd to end. Group 3, the ozanimod monotherapy group, received ozanimod p.o., qd to end plus Vehicle 1, i.v., qod×5. Combination Group 4 received ozanimod p.o., qd to end plus paclitaxel i.v., qod×5.
Animals were monitored individually, and each mouse was euthanized when its tumor reached the endpoint volume of 2000 mm3 or on the final day, whichever came first. The time to endpoint (TTE) was calculated for each mouse. Treatment outcome was determined from percent tumor growth delay (% TGD), defined as the percent increase in median TTE for treated versus control mice, with differences in TTE values between groups deemed statistically significant at P<0.05 using logrank survival analysis. Mice were also monitored for complete regression (CR) and partial regression (PR) responses. An animal with a CR at the end of the study was additionally classified as a tumor-free survivor (TFS). Treatment tolerability was assessed by body weight measurements and frequent observation for clinical signs of treatment-related side effects.

hERG channel, sequence (Q12809 whole entry): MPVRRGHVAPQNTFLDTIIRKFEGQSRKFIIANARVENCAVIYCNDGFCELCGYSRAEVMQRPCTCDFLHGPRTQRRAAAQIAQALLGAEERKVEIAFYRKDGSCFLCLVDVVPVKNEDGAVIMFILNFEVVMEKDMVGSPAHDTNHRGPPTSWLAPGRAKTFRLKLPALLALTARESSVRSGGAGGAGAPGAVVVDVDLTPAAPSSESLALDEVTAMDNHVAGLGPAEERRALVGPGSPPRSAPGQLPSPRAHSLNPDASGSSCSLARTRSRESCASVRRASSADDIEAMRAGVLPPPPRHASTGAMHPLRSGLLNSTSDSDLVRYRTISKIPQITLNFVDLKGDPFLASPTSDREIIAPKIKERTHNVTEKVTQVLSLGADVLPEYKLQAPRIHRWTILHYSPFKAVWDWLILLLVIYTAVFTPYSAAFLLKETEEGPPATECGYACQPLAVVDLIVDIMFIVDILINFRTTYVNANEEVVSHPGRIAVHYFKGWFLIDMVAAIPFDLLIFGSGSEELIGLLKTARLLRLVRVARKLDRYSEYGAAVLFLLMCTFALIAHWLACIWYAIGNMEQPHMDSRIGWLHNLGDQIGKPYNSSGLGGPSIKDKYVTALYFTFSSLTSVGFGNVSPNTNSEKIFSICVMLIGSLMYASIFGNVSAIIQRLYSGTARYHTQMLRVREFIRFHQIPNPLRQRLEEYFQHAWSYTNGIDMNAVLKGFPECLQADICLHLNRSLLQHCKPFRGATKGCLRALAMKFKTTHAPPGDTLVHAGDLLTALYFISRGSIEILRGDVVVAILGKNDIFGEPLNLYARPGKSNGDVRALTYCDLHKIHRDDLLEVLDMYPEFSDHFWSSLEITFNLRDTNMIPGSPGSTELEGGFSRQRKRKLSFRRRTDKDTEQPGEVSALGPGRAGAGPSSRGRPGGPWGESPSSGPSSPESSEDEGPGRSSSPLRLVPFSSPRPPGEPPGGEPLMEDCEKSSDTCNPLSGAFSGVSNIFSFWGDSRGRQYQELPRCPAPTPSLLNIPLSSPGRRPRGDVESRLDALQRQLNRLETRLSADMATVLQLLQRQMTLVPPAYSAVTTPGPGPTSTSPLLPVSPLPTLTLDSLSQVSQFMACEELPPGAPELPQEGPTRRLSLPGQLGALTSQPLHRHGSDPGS

| SMILES | Active Doses, mg/kg sc (>50% MPE) [1] | IC50 (hERG channel) | Active Doses in SNL Neuropathy Model (mg/kg) (p < 0.05 compared to SNL + VEH treated mice) MECHANICAL ([2]; mechanical allodynia, manual von Frey) | Active Doses in SNL Neuropathy Model (mg/kg) (p < 0.05 compared to SNL + VEH treated mice) THERMAL ([2]; thermal hyperalgesia, paw withdrawal latency) | Active Doses in STZ Diabetic Neuropathy Model (mg/kg, po) (p < 0.05 compared to STZ + VEH treated mice) MECHANICAL [3] | Active Doses in STZ Diabetic Neuropathy Model (mg/kg, po) (p < 0.05 compared to STZ + VEH treated mice) THERMAL [3] | percent tumor growth delay (% TGD), monotherapy ([4]; monotherapy vs control, paclitaxel i.v. qod×5, ozanimod or Compound 103 p.o. qd to end) | study survivors ([4]; n=10 per group, animals surviving the study) |
| --- | --- | --- | --- | --- | --- | --- | --- | --- |
| COc1ccc(-c2noc(-c3ccc4c(c3)nnn4CC(C)(C)O)n2)c(C)c1 [Compound 26, 1-{5-[3-(4-methoxy-2-methylphenyl)-1,2,4-oxadiazol-5-yl]-1H-1,2,3-benzotriazol-1-yl}-2-methylpropan-2-ol] | ≥0.1 mg/kg | > 10 µM |  |  |  |  |  |  |
| CCC1(CC)CC(=O)c2cc(-c3nc(-c4cccnc4)no3)ccc2O1 [Compound 103, 2,2-diethyl-6-[3-(pyridin-3-yl)-1,2,4-oxadiazol-5-yl]-3,4-dihydro-2H-1-benzopyran-4-one] | ≥0.03 mg/kg |  | <100 mg/kg | <100 mg/kg | <100 mg/kg | <100 mg/kg | 15% | One |
| CCC1(CC)CC(=O)c2cc(-c3nc(-c4ccncc4OC)no3)ccc2O1 [Compound 212, 2,2-diethyl-6-(3-(3-methoxypyridin-4-yl)-1,2,4-oxadiazol-5-yl)chroman-4-one] | ≥0.1 mg/kg |  |  |  |  |  |  |  |
| Cc1ccccc1-c1noc(-c2ccc3c(c2)nnn3C(C)C)n1 [Compound 293, 5-[3-(2-methylphenyl)-1,2,4-oxadiazol-5-yl]-1-(propan-2-yl)-1H-1,2,3-benzotriazole] | ≥0.1 mg/kg |  |  |  | <100 mg/kg | <100 mg/kg |  |  |
| CC(C)n1nnc2cc(-c3nc(-c4cccc5c4OCCC5)no3)ccc21 [Compound 304, 3-chroman-8-yl-5-(1-isopropylbenzotriazol-5-yl)-1,2,4-oxadiazole] |  | > 10 µM |  |  |  |  |  |  |
| CCC1(CC)CC(=O)c2cc(-c3nc(-c4cn[nH]c4)no3)ccc2O1 [Compound 469, 6-(3-(1H-pyrazol-4-yl)-1,2,4-oxadiazol-5-yl)-2,2-diethylchroman-4-one] | ≥0.01 mg/kg | > 10 µM |  |  | <100 mg/kg | <100 mg/kg |  |  |
